From patent publication US20100210017A1, “COMPOSITIONS AND METHODS FOR ENHANCING TOLERANCE FOR THE PRODUCTION OF ORGANIC CHEMICALS PRODUCED BY MICROORGANISMS” (priority 2007, published 2010)
In brackets after ≈: the same amount, converted by molar mass. Read-outs that look alike come from different tables or passages of the source.

Key:
Assay type in all cases: cell-based
[1] = tested on: E. coli (vector control; clone expressing aroH mutant); experiment: 24 hour minimum inhibitory concentration of 3-HP in M9 minimal media; conditions: Escherichia coli
Protocol: By use of the SCALEs methodology, a number of genetic targets for alleviating growth inhibition in the presence of 3-HP have been identified. […] A clone was constructed containing the tyrA-aroF operon and was cultured in the presence of 20 g/L 3-HP. Increased copy of this region partially alleviated growth inhibition, conferring a 15% increase in specific growth. […] One method to bypass this inherent control was obtaining an inducible feedback resistant aroH mutant that will increase the conversion of E-4-P while maintaining activity in the presence of increasing pools of downstream products, thus alleviating growth inhibition due to impaired synthesis of necessary byproducts of the chorismate pathway. […] In addition, the 24 hour minimum inhibitory concentration of 3-HP (the minimum concentration to stop visible growth at 24 hours) in M9 minimal media increased from 25 g/L for a vector control to 40 g/L for an E. coli clone expressing this aroH mutant. In certain embodiments herein, it is contemplated that the aroH mutant can be of use alone, or in combination with other genetic manipulations or selection to increase tolerance of 3-HP production in microorganisms.

[2] = tested on: Escherichia coli strain Mach1-T1^R containing pSMART-LCKAN empty vector; experiment: Growth confirmations: media supplementation in presence of 3-HP; conditions: for effect on specific growth in the presence of 3-HP: supplementation of the growth medium, 3-HP present
Text: Some methods concern wild-type Escherichia coli K12 (ATCC # 29425) used for the preparation of genomic DNA. Genomic libraries were constructed using the pSMART-LCKAN (Lucigen, Middleton, Wis.). Libraries were introduced into Escherichia coli strain Mach1-T1^R (Invitrogen, Carlsbad, Calif.) for selections as previously detailed. Mach1-T1^R containing pSMART-LCKAN empty vector were used for all control studies. Growth curves were done in MOPS Minimal Media. In this example, the antibiotic concentration was 20 ug kanamycin/mL.
Overnight cultures of Mach1-T1^R+pSMART LC-KAN were inoculated into 5 mL LB+kanamycin. Growth curves were constructed by inoculating into 15 mL screw cap tubes containing supplements (Table 1) and 15 mL MOPS Minimal Media+kanamycin+3-HP from overnight culture. Cultures were incubated at 37° C. and optical density was monitored to an OD600>0.2. Cultures were then diluted to an exact OD600=0.2 and were used to inoculate cultures containing 15 mL MOPS Minimal Media+kanamycin+3-HP (pH=7.0) to an initial optical density of […] in order to minimize effects of growth in stationary phase. Optical density was monitored and recorded over the entire range of microaerobic growth in minimal media, or until a final OD600 0.5-0.6. Growth parameters were evaluated in terms of specific growth, OD600 at the culmination of the growth phase (approximately 14 hours), and OD600 at conclusion of maximum growth phase and final OD600 (24 hrs). To address specific intermediate limitations, associated chorismate pathway supplements were added to final concentrations listed in Table 1.
To confirm these findings, the culture medium was supplemented with products synthesized downstream of chorismate. The addition of each product individually stimulated growth, further confirming that the inhibition is occurring at, or prior to synthesis of chorismate (FIG. 3B). FIG. 3B represents growth confirmations: addition of products downstream of chorismate partially alleviate growth inhibition confirmed by increased specific growth (black) and increased OD600 at the culmination of the growth phase (grey). However, increasing the supplementation of several downstream products (tyrosine, phenylalanine, tryptophan) results in feedback inhibition of the first committed step to the chorismate super-pathway and will therefore reduce formation of other downstream products including ubiquinone, meniquinone, and tetrahydrofolate and limit the associated growth benefits.

[3] = tested on: bacterial culture capable of producing 3-HP; experiment: 3-HP production with exogenously added tyrosine; conditions: 0.2 mM tyrosine added to culture
Protocol: In certain embodiments, exogenously added tyrosine can be added to a bacterial culture capable of producing 3-HP. In certain particular embodiments, tyrosine concentrations can be about 0.05 mM to about 0.5 mM. In one example, 0.2 mM tyrosine was added to a culture and the increase in 3-HP production was about 35%.

E. coli Mach1 = experiment: Minimum inhibitory concentration of acrylic acid in minimal media; conditions: Escherichia coli
Protocol: 3-HP composition obtained, for example, from TCI America for initial library selections and all subsequent growth confirmations can contain variable amounts of acrylic acid contamination. A minimum inhibitory concentration of acrylic acid for E. coli Mach1 grown in minimal media was determined to be around 0.6 g/L. In support that the tolerance mechanism specific to the chorismate super-pathway are exclusive to 3-HP toxicity, the minimum inhibitory concentrations of acrylic acid was determined to be 0.6 g/L for E. coli Mach1 grown in minimal media supplemented with addition of shikimate or homocysteine. Additionally, the minimal inhibitory concentration was determined to be 0.6 g/L for the feedback resistant aroH mutants grown in minimal media.

With `O=C(O)CCO` [3-HP, 3-hydroxypropionic acid] as the compound, how does the MIC ([1]; read-out: 24 hour minimum inhibitory concentration (minimum concentration to stop visible growth at 24 hours), M9 minimal media, E. coli clone expressing feedback resistant aroH mutant) read?
The MIC was 40000 µg/mL.

What about the MIC ([1]; read-out: 24 hour minimum inhibitory concentration (minimum concentration to stop visible growth at 24 hours), M9 minimal media, vector control) of the same compound?
The MIC was 25000 µg/mL.

`N[C@@H](Cc1ccccc1)C(=O)O` [Phenylalanine, phenylalanine] was tested. Which “effect on specific growth in the presence of 3-HP” value [2] did it give?
Its value is “detrimental effect”.

`O=C(O)C1=C[C@@H](O)[C@@H](O)[C@H](O)C1` [Shikimate, shikimate] was tested. Which “regeneration of growth compared with wild-type growth” value ([2]; addition of shikimate to growth media under 3-HP stress) did it give?
Its value is “about 20%”.

What about the “effect on specific growth in the presence of 3-HP” value [2] of the same compound?
Its value is “dramatic increase in growth”.

Which results are given for `N[C@@H](Cc1ccc(O)cc1)C(=O)O` [Tyrosine, tyrosine]?
increase in 3-HP production [3]: about 35%; effect on specific growth in the presence of 3-HP [2]: beneficial effect

How did the MIC (E. coli Mach1; MACH1, E. coli Mach1, minimal media supplemented with shikimate or homocysteine, read-out: minimum inhibitory concentration) turn out when `C=CC(=O)O` [acrylic acid] was run?
Its MIC is 600 µg/mL (≈ 8.33 mM).

And the MIC (E. coli Mach1; MACH1, E. coli Mach1 grown in minimal media, read-out: minimum inhibitory concentration)?
Its MIC is roughly 600 µg/mL (≈ 8.33 mM).

And the MIC (E. coli Mach1; MACH1, read-out: minimal inhibitory concentration, feedback resistant aroH mutants grown in minimal media)?
Its MIC is 600 µg/mL (≈ 8.33 mM).
